# Measurements reported in patent US10450322B2, “Low molecular weight derivatives of carboxamide halogenated porphyrins, namely chlorins and bacteriochlorins, and their applications thereof” (LUZITIN, S.A., priority 2015, dated 2019).
# Experiments:
# [1] = n-Octanol:PBS partition ratio (shake-flask); type: physicochemical
# From the text: a modification of the shake-flask method was employed to determine the equilibrium concentrations of the photosensitizer in n-octanol and in phosphate-buffered saline (PBS) mixed in equal volumes, using the typical fluorescence band of the same photosensitizer and calibration curves.
# This example describes the evaluation of in vitro phototoxicity of a carboxamide bacteriochlorin with formula IX after light irradiation, and their potential for PDT application in the treatment of acne vulgaris. The phototoxicity was measured according to the description in the Materials and Methods section. The n-octanol:PBS partition ratio of IX is POW=2.9±0.5. An adequate formulation for this carboxamide bacteriochlorin is PEG400:DMSO (55:45). The phototoxicity of the test compound is proportional to the inhibition of P. acnes viability relative to the non-treated control, and is represented in FIG. 5 in the form of CFU reduction as a function of photosensitizer concentration for the light doses of 4 and 10 J/cm^2.
# P. acnes (ATCC 6919) = assay: In vitro phototoxicity towards Propionibacterium acnes; type: cell-based; conditions: 2 μM, 30 min incubation, irradiated with 10 J/cm^2
# Procedure: Phototoxicity towards bacteria was evaluated in vitro against P. acnes (ATCC® 6919—Remel, Lenexa, Kans., USA) using light with the appropriate wavelength. P. acnes bacteria was cultured in Reinforced Clostridial Medium (Oxoid, Basingstok, UK) under anaerobic atmosphere at 37° C. Anaerobic growth conditions were obtained using an anaerobic jar with a sachet for anaerobic conditions generation (Anaerocult A, Merck, Darmstadt, Germany). P. acnes suspension was diluted with culture medium to an optical density at 620 nm of 1.3, corresponding to approximately […] CFU/ml (colony-forming units per milliliter). The diluted suspension was centrifuged at 13000 rpm for 10 minutes, and re-suspended in PBS. Test compound stock solutions were dissolved in PEG400:DMSO ([…] 400:dimethyl sulfoxide) (55:45) and were diluted to the appropriate concentrations with PBS. The incubation of the test compounds with P. acnes was performed in DB Falcon black 96-well plates with clear flat-bottom (Franklin Lakes, N.J., USA), in the absence of light, during 30 minutes. […] After the incubation period, the viability of P. acnes was evaluated. […] The phototoxicity was measured according to the description in the Materials and Methods section. […]
# [2] = Skin permeation: depth by confocal fluorescence microscopy; type: in vitro ADME, pig; conditions: in 90 minutes, topical formulation
# Procedure: Skin permeation was evaluated using a topical formulation containing benzyl alcohol (23%), Kolliphor EL (17%), Transcutol (50%) and water (10%). The photosensitizer added to this formulation corresponded to 1.85% of the mass before its addition, and the gelling agent (Aerosil 200) added corresponded to 5% of the mass before its addition. The photosensitizer was first dissolved in Transcutol and exposed to 3 min of vortex and 5 min of ultrasounds. A mixture of benzyl alcohol and Kolliphor EL was then added. Immediately after, it was mixed in an IKA MIXER at 200 rpm for 5 min and water was added drop-by-drop for 10 min. Finally, the gelling agent, Aerosil 200, was mixed in and the microemulsion gel was obtained. Skin permeation studies were performed in pig skin using samples collected from 5 months old pigs. The hair was removed as well as the underlying fatty layer, before the permeation studies.
# This example describes the permeation of carboxamide bacteriochlorin with formula IX in pig skin. The topical formulation and the animal model were described in the Materials and Methods section. The permeation was assessed both in terms of the amount of photosensitizer in the skin after designated times of contact between the topical formulation and the skin (incubation time) and in terms of the depth of the permeation in the skin. […]
# CT26 subcutaneous tumors = assay: In vivo antitumor PDT of CT26 subcutaneous tumors in BALB/c mice; conditions: 15 min drug-to-light interval
smiles,measurement,setting,value
"CNC(=O)c1c2nc(c(-c3c(F)cccc3F)c3ccc(cc4nc(c(-c5c(F)cccc5F)c5ccc1[nH]5)CC4)[nH]3)CC2 [formula IX, 5-methylcarboxamide-10,20-bis-(2,6-difluorophenyl)bacteriochlorin]",Log POW,[1],2.9
same,n-octanol:PBS partition ratio POW,[1],2.9±0.5
same,"log CFU P. Acnes (reduction of bacterial CFU, orders of magnitude)",P. acnes (ATCC 6919),9 log CFU
same,depth of penetration in the skin,[2],40 μm
same,cure,"CT26 subcutaneous tumors; 0.15 mg/kg i.v., 40 J/cm^2",100%
same,tolerability of PDT,"CT26 subcutaneous tumors; 0.15 mg/kg i.v., 40 J/cm^2",very well tolerated
same,tumor response,"CT26 subcutaneous tumors; 0.15 mg/kg i.v., 40 J/cm^2",complete regression
same,time post-PDT by which animals died of acute response to the treatment,"CT26 subcutaneous tumors; 0.3 mg/kg i.v., 40 J/cm^2 at 749 nm",less than 72 h
